Values quoted from earlier work, collected in patent publication US20220175755A1, “METHODS OF TREATING TOBACCO SMOKING ADDICTION, AND TREATING NICOTINE AND TOBACCO SMOKING ADDICTION” (Pharma Unlimited B.V., priority 2017, published 2022).
Read-outs that look alike come from different tables or passages of the source.

What was measured:
[1] = system: number of cigarettes smoked by tobacco smokers; conditions: aerosol with an inhaler, dose of 400 μg CBD dissolved in absolute ethanol≈5%
[2] = transdermal patches
[3] = nicotine replacement therapy using chewing gum

Structure (SMILES)	reduction of the number of cigarettes smoked [1]	time after applying a patch at which blood nicotine levels start to rise [2]	blood concentration after stopping chewing the gum (chewing gum, 90 minutes after stopping chewing)	peak nicotine absorption rate (chewing tobacco)	time of peak nicotine absorption rate (chewing tobacco)	peak blood concentration [3]	peak nicotine absorption rate [3]	time for nicotine absorption rate to decline to zero [3]	time of peak nicotine absorption rate [3]	time to peak blood concentration [3]	peak blood concentration (smoking cigarettes)	peak nicotine absorption rate (smoking cigarettes)	time of peak nicotine absorption rate (smoking cigarettes)	time to peak blood concentration (smoking cigarettes)	time for blood concentration to fall to 70% of the peak value (smoking cigarettes, after finishing smoking)
C=C(C)[C@@H]1CCC(C)=C[C@H]1c1c(O)cc(CCCCC)cc1O [CBD]	40%	–	–	–	–	–	–	–	–	–	–	–	–	–	–
CN1CCC[C@H]1c1cccnc1 [nicotine, 3-[(2S)-1-methylpyrrolidine-2-yl]pyridine]	–	about 30 minutes	about 7 ng/ml	around 145 μg/min	5 min	less than 9 ng/ml	around 65 μg/min	about 90 minutes	10 min	about 30 minutes	around 15 ng/ml	around 200 μg/min	about 5 minutes	about 10 minutes	about 20 minutes
